The target in data set [1] is T1, 5-hydroxytryptamine 2B (5-HT2B) Receptor (Homo sapiens, UniProt P41595).
T1 construct: host or cells: Ca2+ optimized hematopoietic cell lines (rat)
The data set can be described thus: Ca2+ assay (FLIPR) for the GPCR 5-HT2B receptor, agonist and antagonist mode. Format: cell-based. How it is done:
(§1) Ca^2+ Assays for the GPCRs Motilin Receptor, Prostaglandin F (FP) Receptor, 5-hydroxytryptamine 2B (5-HT2B) Receptor, and Purinoreceptor P2Y1
(§2) Assays were performed using on a FLIPR^TETRA fluorometric imaging plate reader (Molecular Devices) with ScreenWorks Version 2 (Molecular Devices) as device operating and data analysis software.
(§3) Dose dependent agonist and antagonist activities were determined. Percentage activation and percentage inhibition values were determined.
(§4) Percentage activation was determined upon initial addition of the sample compounds followed by 10 minutes incubation at 25° C. Following compound incubation, reference agonists were added at EC80 to determine percentage inhibition.
(§5) Reference agonists were purchased from reputable commercial vendors and prepared according to each ligand's specifications. All handling of ligands were done to ensure proper control throughout the experiments.
(§6) Example compounds were weighed on a Microbalance (Mettler MX5) and dissolved in 100% DMSO to a final concentration of 2.5 mM and subsequently diluted into the assay buffer.
(§7) The Assay buffer was a supplemented HBSS (Hank's Balanced Salt Solution). HBSS was supplemented with 20 mM HEPES (4-(2-hydroxyethyl)-piperazin-1-ethansulfonic acid) and 2.5 mM Probenecid (Sigma P8761).
(§8) GPCR assays were performed using Ca^2+ optimized hematopoietic cell lines (rat) with cultures never exceeding 90% confluency. […] After seeding, the assay plates were incubated for forty-five (45) minutes at room temperature. After room temperature incubation, the assay plates were incubated at 37° C. 5% CO2 for 24 hours prior to assaying.
(§9) All GPCR assays were performed using Fluo-8 Ca^2+ dye. Ca^2+ dye was prepared at 1× dye concentration in GPCR assay buffer. After 24 hours of incubation, cells were washed with GPCR assay buffer, and then Ca^2+-dye (100 μL/well) was added.
(§10) The plates were incubated for 90 minutes at 30° C. 5% CO2 prior to FLIPR assay.
(§11) Compound plates were prepared to add 50 μL/well during the agonist assay mode. During the FLIPR assay, 50 μL/well from the compound plate was diluted 3-fold into the existing 100 μL/well from the dye loading step. Therefore all compounds were prepared as 3× the final concentration desired in the assay.
(§12) After completion of the first single addition assay run, assay plate was removed from the FLIPR Tetra and placed at 25° C. for seven (7) minutes before antagonist assay.
(§13) Using the EC80 values determined during the agonist assay, all pre-incubated sample compound and reference antagonist (if applicable) wells were stimulated at the EC80 of the reference agonist. As reference ligands for the first three assays their obvious natural ligands motilin, prostaglandin F2α, and serotonin (5-HT, 5-Hydroxytryptamine) were used; and for the P2Y1 assay 2MeSATP (2-methyl-thio-adeno-sine 5′-triphosphate, i.e. (2R,3S,4R)-5-(6-amino-2-methylsulfanyl-purin-9-yl)-3,4-dihydroxy-tetrahydrofuran-2-yl]methyl (hydroxy-phosphonooxy-phosphoryl)hydrogen phosphate) was applied.
(§14) After the addition of the reference agonist fluorescence was monitored for 180 sec using FLIPR Tetra.
(§15) Data Analysis and Results:
(§16) From the FLIPR data, with negative control correction enabled, the maximum statistic for each well was exported and percentage activation relative to Emax control was calculated.

Data set [2] can be described thus: in vitro. Format: in vitro ADME, human. The conditions noted are these: human, plasma, 10 µM; for Plasma Stability 240 min hum [% remain.]: 4 h.
Data set [3] is described as follows: in vitro. The format is in vitro ADME, mouse. The conditions noted are these: both, CD-1, mouse, plasma, 10 µM; for Plasma Stability 240 min mouse [% remain.]: 4 h.
Protocol: Example compounds were dissolved in DMSO/H2O 90:10 to a final concentration of 10 mM for plasma stability determination and metabolic stability determination.
Human plasma (3-5 donors, Blutspendedienst SRK, Basel) and CD-1 mouse plasma (mixed gender pool >50 animals, Innovative Research, CA, USA) are both sodium citrate stabilized. The assay is performed in triplicates at 10 μM compound concentration and 37° C. Samples are taken at 0, 15, 60, and 240 minutes and stopped by precipitation with 2 volumes of acetonitrile. The supernatant is collected, evaporated and reconstituted in a 5% acetonitrile solution to be analyzed by HPLC/MS/MS. The resulting peak area counts are expressed in percent of the 0 value and used to determine the endpoint stability in % and the half life in minutes. In order to monitor assay integrity the degradation of propantheline is assayed with every experimental set.
Data set [4] in a line: Metabolic stability assay, human microsomes. The following applies: human, microsomes; for half-life at 10 µM: both sexes; for Metabolic Stability 60 min hum [% remain.]: both, 1 h, 10 µM. The format is in vitro ADME.
Data set [5] in a line: Metabolic stability assay, CD-1 mouse microsomes. The format is in vitro ADME. The following applies: CD-1, mouse, microsomes; for Metabolic Stability T½ [min] mouse / Metabolic Stability 60 min mouse [% remain.]: both, 10 µM; for Metabolic Stability 60 min mouse [% remain.]: 1 h; for half-life at 10 µM: both sexes.
For another data set, the target named is T2, Motilin Receptor (Homo sapiens, UniProt O43193).
T2 construct: host or cells: Ca2+ optimized hematopoietic cell lines (rat)
T2 sequence (O43193 whole entry, species assumed): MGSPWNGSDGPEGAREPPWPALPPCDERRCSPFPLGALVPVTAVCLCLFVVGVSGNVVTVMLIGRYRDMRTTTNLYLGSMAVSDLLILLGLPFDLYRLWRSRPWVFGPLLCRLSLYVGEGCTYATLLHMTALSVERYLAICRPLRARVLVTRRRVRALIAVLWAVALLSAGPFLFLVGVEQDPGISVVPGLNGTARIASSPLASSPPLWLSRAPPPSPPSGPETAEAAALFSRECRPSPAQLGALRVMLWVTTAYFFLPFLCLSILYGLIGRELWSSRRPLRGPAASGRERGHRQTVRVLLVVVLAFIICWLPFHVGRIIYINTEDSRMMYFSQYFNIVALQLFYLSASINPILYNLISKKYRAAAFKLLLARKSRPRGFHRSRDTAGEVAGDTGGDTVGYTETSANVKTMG
The data set can be described thus: Ca2+ assay (FLIPR) for the GPCR motilin receptor, agonist and antagonist mode. Format: cell-based. The following applies: antagonist mode. How it is done: as §1, §2, §3, §4, §5, §6, §7, §8, §9, §10, §11, §12, §13, §14, §15, §16

In data set [6] the target is T3, Prostaglandin F (FP) Receptor (Homo sapiens, UniProt P43088).
T3 construct: host or cells: Ca2+ optimized hematopoietic cell lines (rat)
T3 sequence (P43088 whole entry): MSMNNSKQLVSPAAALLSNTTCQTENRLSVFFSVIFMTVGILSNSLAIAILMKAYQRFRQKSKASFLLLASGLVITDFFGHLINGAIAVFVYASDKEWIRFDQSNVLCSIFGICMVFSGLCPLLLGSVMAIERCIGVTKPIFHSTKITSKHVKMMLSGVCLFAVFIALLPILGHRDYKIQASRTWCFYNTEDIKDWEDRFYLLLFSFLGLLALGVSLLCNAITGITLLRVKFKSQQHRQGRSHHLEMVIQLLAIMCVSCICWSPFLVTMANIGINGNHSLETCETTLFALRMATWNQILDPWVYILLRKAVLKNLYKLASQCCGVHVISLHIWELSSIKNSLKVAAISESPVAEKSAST
The data set is described as follows: Ca2+ assay (FLIPR) for the GPCR prostaglandin F (FP) receptor, agonist and antagonist mode. The format is cell-based. The following applies: 10 μM. Put shortly:
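Ca2+-optimized rat hematopoietic cells carrying the receptor were loaded with Fluo-8 in HBSS/20 mM HEPES/2.5 mM probenecid and read on FLIPR. Agonist mode: 10 min compound incubation at 25 °C, % activation relative to Emax. Antagonist mode: stimulation at EC80 of the reference agonist (prostaglandin F2α for FP, 2MeSATP for P2Y1), fluorescence monitored 180 s.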

Another data set addresses T4, human Kv1.3 (Homo sapiens, UniProt P22001).
T4 construct: expressed in transfected cells; host or cells: Jurkat cells
The data set is described as follows: Thallium-sensitive fluorescence assay for the voltage gated ion channel Kv1.3 in Jurkat cells. The format is cell-based. The following applies: for inhibition at 10 µM: Jurkat, read-out: KV1,3 antagonist activity [% Inhibition at 10 μM]; for IC50: read-out: KV1,3 antagonist activity IC50. Here is the method: 2. Assay for the Voltage Gated Ion Channel Kv1.3
Assays were performed and analyized with a FLIPR^TETRA device as specified above.
Compounds for inhibition of ion channel Kv1.3 were assayed in Jurkat cells recombinantly expressing human Kv1.3. For high throughput screening a thallium-sensitive, fluorescence-based assay was used. […] To identify blockers of this ion channel the cells were incubated with different concentrations of compounds 5 min before increasing the potassium and thallium concentration. The fluorescence signals by increasing potassium were then compared in the absence and presence of compounds. Dose response curves were established by adding different concentrations of compounds and analyzing the signal. As reference Kv1.3 blockers margatoxin and quinidine in Cl-free buffer were used as described in the literature.
The results of the Kv1.3 assay are depicted in Table 51 below.
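Throughout, for Plasma Stability 240 min mouse [% remain.]: sodium citrate stabilized mouse plasma, parent compound quantified by HPLC/MS/MS relative to its peak area at time zero, run in triplicate.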
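Throughout, for Plasma Stability T½ [min] mouse: sodium citrate stabilized mouse plasma, parent compound quantified by HPLC/MS/MS relative to its peak area at time zero, run in triplicate.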

T4 sequence (P22001 whole entry): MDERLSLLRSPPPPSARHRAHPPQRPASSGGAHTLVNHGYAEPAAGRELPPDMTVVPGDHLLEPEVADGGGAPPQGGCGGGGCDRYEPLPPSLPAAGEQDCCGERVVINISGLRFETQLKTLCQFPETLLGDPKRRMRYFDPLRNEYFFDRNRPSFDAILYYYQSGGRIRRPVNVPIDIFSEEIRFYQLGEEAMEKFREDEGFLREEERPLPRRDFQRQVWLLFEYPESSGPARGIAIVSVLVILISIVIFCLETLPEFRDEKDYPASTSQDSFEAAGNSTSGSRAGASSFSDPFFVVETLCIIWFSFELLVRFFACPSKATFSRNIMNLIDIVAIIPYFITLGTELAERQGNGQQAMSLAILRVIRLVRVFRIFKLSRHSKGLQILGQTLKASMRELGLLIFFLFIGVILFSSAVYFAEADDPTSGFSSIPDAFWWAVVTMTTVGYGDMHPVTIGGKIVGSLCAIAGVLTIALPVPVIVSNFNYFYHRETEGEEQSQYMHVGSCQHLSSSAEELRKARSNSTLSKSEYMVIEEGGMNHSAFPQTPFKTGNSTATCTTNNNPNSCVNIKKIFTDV
T1 sequence (P41595 whole entry, species assumed): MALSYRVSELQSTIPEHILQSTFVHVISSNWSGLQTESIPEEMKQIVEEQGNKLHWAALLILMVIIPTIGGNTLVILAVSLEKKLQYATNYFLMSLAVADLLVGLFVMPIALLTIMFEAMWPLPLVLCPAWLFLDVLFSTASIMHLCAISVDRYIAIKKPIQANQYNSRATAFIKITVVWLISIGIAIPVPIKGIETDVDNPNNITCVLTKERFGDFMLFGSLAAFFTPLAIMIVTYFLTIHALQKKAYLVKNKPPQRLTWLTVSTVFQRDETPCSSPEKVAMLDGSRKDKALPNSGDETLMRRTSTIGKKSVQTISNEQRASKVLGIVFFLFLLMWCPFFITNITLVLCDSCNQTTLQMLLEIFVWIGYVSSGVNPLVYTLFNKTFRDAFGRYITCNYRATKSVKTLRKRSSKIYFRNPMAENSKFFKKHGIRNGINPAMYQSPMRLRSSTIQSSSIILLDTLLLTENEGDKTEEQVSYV

On to `CC(=O)N[C@H]1C[C@H]2COc3ccc(F)cc3C(=O)N(C)[C@H](C(=O)NCCc3c[nH]c4ccccc34)CCC(=O)N(C)CC(=O)N2C1` [Ex. 9, (2S,11S,19aS)-2-(acetylamino)-15-fluoro-N-[2-(1H-indol-3-yl)ethyl]-7,12-dimethyl-5,8,13-trioxo-2,3,6,7,8,9,10,11,12,13,19,19a-dodecahydro-1H,5H-pyrrolo[2,1-c] [1,4,7,12]benzoxatriazacyclopentadecine-11-carboxamide], for which, in data set [1], the EC50 turned out to be 12 µM and the “Agonist activity [% activation at 12.5 μM]” value is 48%. Further, in “in vitro [2]”, the Plasma Stability T½ [min] hum is > 240 min and the “Plasma Stability 240 min hum [% remain.]” value is listed as 99 % remain. Further, in “in vitro [3]”, the Plasma Stability T½ [min] mouse is > 240 min and the “Plasma Stability 240 min mouse [% remain.]” value was found to be 93 % remain. Besides, in data set [4], the half-life at 10 µM came out at 32 min and the “Metabolic Stability 60 min hum [% remain.]” value is reported as 20 % remain. Also, in data set [5], the Metabolic Stability T½ [min] mouse was > 60 min and the “Metabolic Stability 60 min mouse [% remain.]” value amounted to 80 % remain.

Molecule `CN1CC(=O)N2C[C@@H](NC(=O)Cc3c[nH]c4ccccc34)C[C@H]2COc2ccc(F)cc2C(=O)N(C)[C@H](C(=O)NCCc2c[nH]c3ccccc23)CCC1=O` [Ex. 12, (2S,11S,19aS)-15-fluoro-2-{[2-(1H-indol-3-yl)acetyl]amino}-N-[2-(1H-indol-3-yl)ethyl]-7,12-dimethyl-5,8,13-trioxo-2,3,6,7,8,9,10,11,12,13, 19,19a-dodecahydro-1H,5H-pyrrolo[2,1-c] [1,4,7,12]benzoxatriazacyclopentadecine-11-carboxamide] returned a concentration for half-maximal inhibition (IC50) at Motilin Receptor of 2.7 µM. For the same molecule, on Motilin Receptor (at 10 μM), the inhibition at 10 µM came to 95%. The same molecule showed an inhibition at 10 µM in data set [6] of 44%. Also, in data set [1], the EC50 worked out at 3.3 µM and the “Agonist activity [% activation at 12.5 μM]” value stood at 36%. In the data set “in vitro [2]”, the Plasma Stability T½ [min] hum is > 240 min and the “Plasma Stability 240 min hum [% remain.]” value came to 99 % remain. In addition, in the data set “in vitro [3]”, the Plasma Stability T½ [min] mouse is > 240 min and the “Plasma Stability 240 min mouse [% remain.]” value worked out at 100 % remain. Moreover, in data set [4], the half-life at 10 µM amounted to 17 min and the “Metabolic Stability 60 min hum [% remain.]” value came out at 7 % remain. Moreover, in data set [5], the half-life at 10 µM came out at 35 min and the “Metabolic Stability 60 min mouse [% remain.]” value is on record as 33 % remain.

For `CN(C)CC(=O)N[C@H]1C[C@H]2COc3ccc(F)cc3C(=O)N(C)[C@H](C(=O)NCCc3c[nH]c4ccccc34)CCC(=O)N(C)CC(=O)N2C1` [Ex. 16, (2S,11S,19aS)-2-{[2-(dimethylamino)acetyl]amino}-15-fluoro-N-[2-(1H-indol-3-yl)ethyl]-7,12-dimethyl-5,8,13-trioxo-2,3,6,7,8,9,10,11, 12,13,19,19a-dodecahydro-1H,5H-pyrrolo [2,1-c] [1,4,7,12]benzoxatriazacyclopentadecine-11-carboxamide], in data set [1], it took 6.6 µM to reach a half-maximal effect (EC50) and the “Agonist activity [% activation at 12.5 μM]” value is 45%. Moreover, in “in vitro [2]”, the Plasma Stability T½ [min] hum was > 240 min and the “Plasma Stability 240 min hum [% remain.]” value amounted to 95 % remain. In “in vitro [3]”, the Plasma Stability T½ [min] mouse was > 240 min and the “Plasma Stability 240 min mouse [% remain.]” value is 97 % remain. Moreover, in data set [4], the half-life at 10 µM turned out to be 38 min and the “Metabolic Stability 60 min hum [% remain.]” value amounted to 31 % remain. In data set [5], the Metabolic Stability T½ [min] mouse is > 60 min and the “Metabolic Stability 60 min mouse [% remain.]” value came to 79 % remain.

For `CN1CC(=O)N2C[C@@H](NC(=O)OC(C)(C)C)C[C@H]2COc2ccc(F)cc2C(=O)N(C)[C@H](C(=O)NCCc2c[nH]c3ccccc23)CCC1=O` [Ex. 30, tert-butyl N-[(2S,11S,19aS)-15-fluoro-11-({[2-(1H-indol-3-yl)ethyl]amino}carbonyl)-7,12-dimethyl-5,8,13-trioxo-2,3,6,7,8,9,10,11,12,13,19,19a-dodecahydro-1H,5H-pyrrolo[2,1-c] [1,4,7,12]benzoxatriazacyclopentadecin-2-yl]carbamate], in data set [1], the half-maximal effective concentration (EC50) is 3.3 µM and the “Agonist activity [% activation at 12.5 μM]” value came to 48%. In addition, in “in vitro [2]”, the Plasma Stability T½ [min] hum was > 240 min and the “Plasma Stability 240 min hum [% remain.]” value turned out to be 85 % remain. In addition, in the data set “in vitro [3]”, the Plasma Stability T½ [min] mouse was > 240 min and the “Plasma Stability 240 min mouse [% remain.]” value is given as 100 % remain. Besides, in data set [4], the half-life at 10 µM worked out at 22 min and the “Metabolic Stability 60 min hum [% remain.]” value is on record as 2 % remain. Moreover, in data set [5], the Metabolic Stability T½ [min] mouse is > 60 min and the “Metabolic Stability 60 min mouse [% remain.]” value came to 55 % remain.

For `CCCCC(=O)N[C@H]1C[C@H]2COc3cccc(c3)C(=O)N(C)CC[C@H](NC(=O)OCc3ccccc3)C(=O)N2C1` [Ex. 166, benzyl N-[(4S,6S,10S)-13-methyl-9,14-dioxo-6-(pentanoylamino)-2-oxa-8,13-diazatricyclo[13.3.1.0^4,8]nonadeca-1(19),15,17-trien-10-yl]carbamate], on human Kv1.3, the inhibition at 10 µM is 20%.

On to `CN1CCC(NC(=O)OCc2ccccc2)C(=O)N2CC(NC(=O)Cc3ccc4ccccc4c3)CC2COc2cccc(c2)C1=O` [Ex. 168, benzyl N-[(4S,6S,10S)-13-methy1-6-{[2-(2-naphthyl)acetyl]amino}-9,14-dioxo-2-oxa-8,13-diazatricyclo [13.3.1.0^4,8]nonadeca-1(19),15,17-trien-10-yl]carbamate], for which, at human Kv1.3, the inhibition at 10 µM is 44% and the 50% inhibitory concentration (IC50) amounted to 1.69 µM. In the data set “in vitro [2]”, the Plasma Stability T½ [min] hum is > 240 min and the “Plasma Stability 240 min hum [% remain.]” value is 85 % remain. In addition, in the data set “in vitro [3]”, the Plasma Stability T½ [min] mouse was > 240 min and the “Plasma Stability 240 min mouse [% remain.]” value was 99 % remain. For the same molecule, in data set [4], the half-life at 10 µM was 25 min and the “Metabolic Stability 60 min hum [% remain.]” value turned out to be 17 % remain. In data set [5], the half-life at 10 µM is 26 min and the “Metabolic Stability 60 min mouse [% remain.]” value amounted to 21 % remain.

Consider `CCCCC(=O)N[C@H]1C[C@H]2COc3cccc(c3)C(=O)N(C)CC[C@H](NC(=O)c3ccc4ccccc4c3)C(=O)N2C1` [Ex. 171, N-[(4S,6S,10S)-13-methyl-9,14-dioxo-6-(pentanoylamino)-2-oxa-8,13-diazatricyclo[13.3.1.0^4,8]nonadeca-1(19),15,17-trien-10-yl]-2-naphthamide], for which the inhibition at 10 µM on human Kv1.3 came to 12%.

Turning to `CN1CC[C@H](NC(=O)Cc2cccc3ccccc23)C(=O)N2C[C@@H](NC(=O)Cc3ccc4ccccc4c3)C[C@H]2COc2cccc(c2)C1=O` [Ex. 177, N-[(4S,6S,10S)-13-methyl-6-{[2-(2-naphthyl)acetyl]amino}-9,14-dioxo-2-oxa-8,13-diazatricyclo[13.3.1.0^4,8]nonadeca-1(19),15,17-trien-10-yl]-2-(1-naphthyl)acetamide], on human Kv1.3, the inhibition at 10 µM came out at 54% and the 50% inhibitory concentration (IC50) was 3.5 µM.

What is called EC50 is the concentration at which the effect is half-maximal. A lower EC50 goes with a more potent agent. The half-life is how long it takes for the measured level to halve. Read a low half-life as fast loss. As usually defined, the IC50 is the concentration that gives 50% inhibition. As a reminder, the inhibition is the relative decrease from the control value, in per cent.

The record behind these values is patent publication US9512139B2, “Conformationally constrained, fully synthetic macrocyclic compounds” (POLYPHOR AG, priority 2009, dated 2016).
